Reference: US20260092061A1, “COMPOUNDS FOR TARGETED PROTEIN DEGRADATION” (Amphista Therapeutics Limited, priority 2022, published 2026)

Biological target: T1, BRD9 (Homo sapiens, UniProt Q9H8M2)
T1 sequence (Q9H8M2 1-597): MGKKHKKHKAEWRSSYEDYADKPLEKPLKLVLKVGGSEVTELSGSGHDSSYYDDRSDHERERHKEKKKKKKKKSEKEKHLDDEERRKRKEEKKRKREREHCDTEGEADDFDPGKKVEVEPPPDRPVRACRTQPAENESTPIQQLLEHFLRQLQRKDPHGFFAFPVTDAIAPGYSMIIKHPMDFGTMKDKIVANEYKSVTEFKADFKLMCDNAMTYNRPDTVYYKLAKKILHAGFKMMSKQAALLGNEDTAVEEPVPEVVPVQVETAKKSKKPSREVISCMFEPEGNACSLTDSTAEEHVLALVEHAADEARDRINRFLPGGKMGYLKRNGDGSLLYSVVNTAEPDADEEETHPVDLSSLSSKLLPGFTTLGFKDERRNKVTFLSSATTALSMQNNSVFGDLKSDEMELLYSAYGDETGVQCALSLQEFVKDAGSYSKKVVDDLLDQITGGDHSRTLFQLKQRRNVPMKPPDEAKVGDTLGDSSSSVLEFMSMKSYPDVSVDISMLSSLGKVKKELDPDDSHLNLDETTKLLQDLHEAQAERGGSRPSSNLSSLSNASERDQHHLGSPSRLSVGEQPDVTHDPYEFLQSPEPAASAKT
Assay: Degradation of BRD9 (IF), immunofluorescence in MV4-11 cells, 24 hours (Assay Protocol 2)
Format: cell-based
Set-up: A suspension of MV4-11 cells (ATCC CRL-9591) was prepared; host or cells: MV4-11
Settings: BRD9 degradation; for DC50: Assay protocol 2, read-out: DC50; for Dmax: MV4-11, Assay protocol 2, read-out: Dmax
Method: Assay Protocol 2—Degradation of BRD9 (IF)
A suspension of MV4-11 cells (ATCC CRL-9591) was prepared in phenol red-free assay media (IMDM Thermo Scientific 21056023+10% FBS ATCC 302025) and cells were seeded at 20,000 cells per well (45 μL) in sterile black poly-d-lysine coated 384 well plates (Greiner 781948). Compounds were prepared at 1000× final concentration in DMSO, diluted 1:100 in assay media, and 5 μL compound was added to each well of the cell plate. Cells were incubated for 24 hours at 37° C. with 5% CO2. All the following incubations for immunofluorescence staining were at room temperature. 15 μL of 16% PFA was added to each well (3.7% final concentration) and the cells were fixed for 15 min then washed twice with DPBS. Cells were permeabilised with 0.1% Triton X-100 for 10 min, Triton X-100 was removed, then blocked with 1% BSA in DPBS for 1 hour. Cells were stained with 25 μL anti-BRD9 E4Q3F antibody (CST 48306) diluted 1:25600 in 1% BSA in DPBS for 2-3 hours. Wels were washed twice with DPBS then incubated with 25 μL of 1% BSA containing a 1:1000 dilution of Anti-rabbit Alexa Fluor™ 647 secondary antibody (Thero Scientific A21244) and 1 μg/mL Hoechst nuclear counter stain (Abcam ab228551) for 1 hour. Wells were washed twice with DPBS prior to imaging on a Perkin Elmer Operetta CLS with 10× air lens. Images were processed using Harmony High-Content Imaging and Analysis Software (Perkin Elmer) and the mean contrast ratio of Alexa Fluor™ 647 in central nuclei was used to quantify BRD9 protein levels. Data was further analysed using Dotmatics software and % BRD9 remaining was calculated by normalisation to average data from high and low control wells (cells treated with DMSO or 100 nM CFT-8634 respectively).

Compound	DC50 [nM]	Dmax [%]
COc1cc(-c2cn(C)c(=O)c(C)c2C)cc(OC)c1CN1C2CC1CN(C(=O)/C(C#N)=C/c1cccc(C(F)(F)F)n1)C2 (mixture of isomers) [Compound B188, (E/Z)-2-(6-(2,6-dimethoxy-4-(1,4,5-trimethyl-6-oxo-1,6-dihydropyridin-3-yl)benzyl)-3,6-diazabicyclo[3.1.1]heptane-3-carbonyl)-3-(6-(trifluoromethyl)pyridin-2-yl)acrylonitrile]	< 1.25	> 75
COc1cc(-c2cn(C)c(=O)c(C)c2C)cc(OC)c1CN1CCN(Cc2cccc3c2CCN(C(=O)/C(C#N)=C/C(C)(C)C)C3C)C2(CCC2)C1 (mixture of isomers) [Compound B130, (E/Z)-2-(5-((8-(2,6-dimethoxy-4-(1,4,5-trimethyl-6-oxo-1,6-dihydropyridin-3-yl)benzyl)-5,8-diazaspiro[3.5]nonan-5-yl)methyl)-1-methyl-1,2,3,4-tetrahydroisoquinoline-2-carbonyl)-4,4-dimethylpent-2-enenitrile]	10 to 25	> 75
COc1cc(-c2cn(C)c(=O)c(C)c2C)ccc1CN1CCN(Cc2cccc3c2CCN(C(=O)/C(C#N)=C/C(C)(C)C)C3C)C2(CC2)C1 (mixture of isomers) [Compound B147, (E/Z)-2-(5-((7-(2-methoxy-4-(1,4,5-trimethyl-6-oxo-1,6-dihydropyridin-3-yl)benzyl)-4,7-diazaspiro[2.5]octan-4-yl)methyl)-1-methyl-1,2,3,4-tetrahydroisoquinoline-2-carbonyl)-4,4-dimethylpent-2-enenitrile]	1.25 to 10	> 75
COc1cc(-c2cn(C)c(=O)c(C)c2C)cc(OC)c1CN1CC(Oc2cccc(C3CCCN3C(=O)/C(C#N)=C/C(C)(C)C)c2)C1 (mixture of isomers) [Compound B62, (E/Z)-2-(2-(3-((1-(2,6-dimethoxy-4-(1,4,5-trimethyl-6-oxo-1,6-dihydropyridin-3-yl)benzyl)azetidin-3-yl)oxy)phenyl)pyrrolidine-1-carbonyl)-4,4-dimethylpent-2-enenitrile]	1.25 to 10	> 75

Further lines, results first:

DC50 [nM]	Dmax [%]	Compound
1.25 to 10	40 to 70	COc1cc(-c2cn(C)c(=O)c(C)c2C)cc(OC)c1CN1CC2CCC1CN2Cc1cccc2c1CCN(C(=O)/C(C#N)=C/C(C)(C)C)C2C (mixture of isomers) [Compound B101, (E/Z)-2-(5-((5-(2,6-dimethoxy-4-(1,4,5-trimethyl-6-oxo-1,6-dihydropyridin-3-yl)benzyl)-2,5-diazabicyclo[2.2.2]octan-2-yl)methyl)-1-methyl-1,2,3,4-tetrahydroisoquinoline-2-carbonyl)-4,4-dimethylpent-2-enenitrile]
< 1.25	> 75	CC[C@@H]1c2cccc(CN3CCN(Cc4c(OC)cc(-c5cn(C)c(=O)c(C)c5C)cc4OC)C4(CC4)C3)c2CCN1C(=O)/C(C#N)=C/C(C)(C)C (single isomer, unassigned) [Compound C91, (E/Z)-2-(5-((4-(2,6-dimethoxy-4-(1,4,5-trimethyl-6-oxo-1,6-dihydropyridin-3-yl)benzyl)-4,7-diazaspiro[2.5]octan-7-yl)methyl)-1-ethyl-1,2,3,4-tetrahydroisoquinoline-2-carbonyl)-4,4-dimethylpent-2-enenitrile]
1.25 to 10	> 75	COc1cc(-c2cn(C)c(=O)c(C)c2C)cc(OC)c1C(=O)N1CCCN(Cc2cccc3c2CCN(C(=O)/C(C#N)=C/C(C)(C)C)C3C)CC1 (mixture of isomers) [Compound B65, (E/Z)-2-(5-((4-(2,6-dimethoxy-4-(1,4,5-trimethyl-6-oxo-1,6-dihydropyridin-3-yl)benzoyl)-1,4-diazepan-1-yl)methyl)-1-methyl-1,2,3,4-tetrahydroisoquinoline-2-carbonyl)-4,4-dimethylpent-2-enenitrile]
